Results from PubChem BioAssay (NCI).
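Abbreviation: GI50, concentration required for 50% inhibition of growth. At the TGI there is no net growth.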

Assays:
Assay in all cases: NCI anticancer screen, dose series, 384-well format
[1] = system: RPMI-8226 leukemia
[2] = system: MCF7 breast
[3] = system: HCT-116 colon
[4] = system: 786-0 renal
[5] = system: KM12 colon
[6] = system: NCI-H322M lung
[7] = system: NCI-H460 NSCLC
[8] = system: CCRF-CEM leukemia
[9] = system: SNB-19 CNS
[10] = system: HT29 colon
[11] = system: BT-549 breast
[12] = system: HOP-92 NSCLC
[13] = system: SF-295 CNS
[14] = system: SNB-75 CNS
[15] = system: ACHN renal
[16] = system: EKVX NSCLC
[17] = system: MDA-MB-231 breast
[18] = system: U251 glioblastoma
[19] = system: SW-620 colon
[20] = system: COLO 205 colon
[21] = system: HS 578T breast
[22] = system: LOX IMVI melanoma
[23] = system: OVCAR-4 ovarian
[24] = system: HCC-2998 colon
[25] = system: SF-539 CNS
[26] = system: NCI-H226 lung
[27] = system: A549 NSCLC
[28] = system: CAKI-1 renal
[29] = system: HCT-15 colon
[30] = system: SR leukemia
[31] = system: NCI/ADR-RES ovarian
[32] = system: SN12C renal
[33] = system: TK-10 renal
[34] = system: UO-31 renal
[35] = system: K-562 leukemia
[36] = system: IGROV1 ovarian
[37] = system: UACC-257 melanoma
[38] = system: SK-OV-3 ovarian
[39] = system: MDA-MB-468 breast
[40] = system: NCI-H522 lung
[41] = system: MOLT-4 leukemia
[42] = system: MDA-MB-435 melanoma
[43] = system: UACC-62 melanoma
[44] = system: T-47D breast
[45] = system: SK-MEL-28 melanoma
[46] = system: OVCAR-8 ovarian
[47] = system: PC-3 prostate
[48] = system: A498 renal
[49] = system: SF-268 CNS
[50] = system: OVCAR-3 ovarian
[51] = system: M14 melanoma
[52] = system: NCI-H23 lung
[53] = system: DU-145 prostate
[54] = system: HOP-62 NSCLC
[55] = system: HL-60(TB) leukemia
[56] = system: RXF 393 renal
[57] = system: SK-MEL-5 melanoma
[58] = system: MALME-3M melanoma

`CNc1ncc2cc(-c3cc(NC(=O)NCCC(C)(C)C)c(F)cc3C)c(C)nc2n1` gave a GI50 [1] of 162 nM, a TGI [1] of 585 nM and a GI50 [2] of 7.04 µM. For the same compound, the TGI [2] was over 100 µM, the GI50 [3] was 58.5 nM and the TGI [3] was 916 nM. It also gave a GI50 [4] of 676 nM, a TGI [4] of 39.1 µM and a GI50 [5] of 501 nM. It also gave a TGI [5] of 38.3 µM, a GI50 [6] of 318 nM and a TGI [6] of 12.9 µM. It also gave a GI50 [7] of 302 nM, a TGI [7] of 13.8 µM and a GI50 [8] of 495 nM. The TGI [8] was 18.3 µM, the GI50 [9] was 1550 nM and the TGI [9] was 71 µM. The GI50 [10] was 26.8 nM, the TGI [10] was 13.1 µM and the GI50 [11] was 1260 nM. The TGI [11] was 19.9 µM, the GI50 [12] was 166 nM and the TGI [12] was 409 nM. The GI50 [13] was 1200 nM, the TGI [13] was over 100 µM and the GI50 [14] was 361 nM. It also gave a TGI [14] of 15.4 µM, a GI50 [15] of 250 nM and a TGI [15] of 19.1 µM. It also gave a GI50 [16] of 2090 nM, a TGI [16] of 82.4 µM and a GI50 [17] of 47.9 nM. It also gave a TGI [17] of 397 nM, a GI50 [18] of 506 nM and a TGI [18] of 13 µM. It also gave a GI50 [19] of 334 nM, a TGI [19] of 15.4 µM and a GI50 [20] of 14.4 nM. The TGI [20] was 543 nM, the GI50 [21] was 354 nM and the TGI [21] was 7.89 µM. The GI50 [22] was 27.7 nM, the TGI [22] was 237 nM and the GI50 [23] was 18.3 µM. The TGI [23] was over 100 µM, the GI50 [24] was 127 nM and the TGI [24] was 11.5 µM. The GI50 [25] was 1750 nM, the TGI [25] was 19.2 µM and the GI50 [26] was 299 nM. For the same compound, the TGI [26] was 15.7 µM, the GI50 [27] was 711 nM and the TGI [27] was 15.2 µM. For the same compound, the GI50 [28] was 134 nM, the TGI [28] was 1230 nM and the GI50 [29] was 525 nM. The TGI [29] was 38.6 µM, the GI50 [30] was 181 nM and the TGI [30] was 385 nM. It also gave a GI50 [31] of 3.08 µM, a TGI [31] of 83.7 µM and a GI50 [32] of 173 nM. The TGI [32] was 889 nM, the GI50 [33] was 599 nM and the TGI [33] was 4.67 µM. The GI50 [34] was 210 nM, the TGI [34] was 23.6 µM and the GI50 [35] was 126 nM. For the same compound, the TGI [35] was 284 nM, the GI50 [36] was 157 nM and the TGI [36] was 1050 nM. The GI50 [37] was 16.6 nM, the TGI [37] was 119 nM and the GI50 [38] was 303 nM. It also gave a TGI [38] of 4.16 µM, a GI50 [39] of 12.8 µM and a TGI [39] of 35.2 µM. The GI50 [40] was 670 nM, the TGI [40] was 9.38 µM and the GI50 [41] was 360 nM. The TGI [41] was 15.4 µM, the GI50 [42] was 33.6 nM and the TGI [42] was 27.3 µM. The GI50 [43] was under 10 nM, the TGI [43] was 51.7 nM and the GI50 [44] was 2400 nM. It also gave a TGI [44] of 37.7 µM, a GI50 [45] of under 10 nM and a TGI [45] of 35.9 nM. It also gave a GI50 [46] of 489 nM, a TGI [46] of 48.9 µM and a GI50 [47] of 13.3 µM. The TGI [47] was over 100 µM, the GI50 [48] was 294 nM and the TGI [48] was over 100 µM. For the same compound, the GI50 [49] was 1090 nM, the TGI [49] was 16.1 µM and the GI50 [50] was 1230 nM. The TGI [50] was 55.8 µM, the GI50 [51] was under 10 nM and the TGI [51] was 36.4 nM. For the same compound, the GI50 [52] was 47.2 nM, the TGI [52] was 443 nM and the GI50 [53] was 652 nM. For the same compound, the TGI [53] was 32.4 µM, the GI50 [54] was 367 nM and the TGI [54] was 15.9 µM. For the same compound, the GI50 [55] was 17.1 nM, the TGI [55] was 130 nM and the GI50 [56] was 440 nM. For the same compound, the TGI [56] was 10.5 µM, the GI50 [57] was 38.2 nM and the TGI [57] was 4.2 µM. For the same compound, the GI50 [58] was under 10 nM.
